The source of these data is ChEMBL document CHEMBL4414624, “Terpenoids from the Stems of Fissistigma polyanthoides and Their Anti-Inflammatory Activity” (J Nat Prod, 2019).

Experiment [1] in a line: (§1) Inhibition of LPS-induced NF-kappaB/AP-1 signalling cascade in human THP1-Blue-CD14 cells incubated for 24 hrs by quanti-blue SEAP assay. The format is cell-based.
The species entered for the next experiment is Homo sapiens. Described as §1. The format is cell-based.
Experiment [2] can be described thus: Cytotoxicity against human THP1-Blue-CD14 cells assessed as reduction in cell viability after 24 hrs by CellTiter-Blue based fluorescence analysis. For orientation: Resazurin is reduced to fluorescent resorufin, in cell work by metabolically active cells.
Experiment [3] is described as follows: Cytotoxicity against LPS-stimulated human THP1-Blue-CD14 cells assessed as reduction in cell viability after 24 hrs by CellTiter-Blue based fluorescence analysis.

Regarding `CC(C)[C@H]1CC/C2=C/C(=O)CC[C@](C)(O[C@@H]3O[C@H](CO)[C@@H](O)[C@H](O)[C@H]3OC(=O)/C=C/c3ccccc3)C[C@@H]21`, the figures for the concentration for half-maximal inhibition (IC50) in experiment [1], in experiment [2] and in experiment [3] were 30.7 µM, 133 µM and 46.4 µM, respectively. Also, the inhibition result in the experiment filed under Homo sapiens was “Dose-dependent effect”.

In the case of `CC(C)[C@@H]1CC[C@@H](C)[C@@]23CC[C@](C)(O[C@@H]4O[C@H](CO)[C@@H](O)[C@H](O)[C@H]4OC(=O)/C=C/c4ccccc4)[C@@H]2[C@@H]13`, the IC50 (in general, the concentration that inhibits the measured activity by half) in experiment [1] is 13.7 µM; in experiment [2] it was 29.2 µM; in experiment [3] it was 21.6 µM. Moreover, in the experiment filed under Homo sapiens, the inhibition entry was “Dose-dependent effect”.

For `CC(C)C1=CC[C@]2(C)[C@@H](O)CC[C@@](C)(O[C@@H]3O[C@H](CO)[C@@H](O)[C@H](O)[C@H]3OC(=O)/C=C/c3ccccc3)[C@H]2C1`, the IC50 amounted to 20.8 µM in experiment [1], 39.1 µM in experiment [2] and 29.5 µM in experiment [3]. Moreover, in the experiment listed under Homo sapiens, the inhibition result was “Dose-dependent effect”.

As for `C[C@@H]1CC[C@H](C(C)(C)O[C@@H]2O[C@H](CO)[C@@H](O)[C@H](O)[C@H]2OC(=O)/C=C/c2ccccc2)CC2=C1CC[C@H]2C`, the values for the IC50 in experiment [1], in experiment [2] and in experiment [3] were 28.4 µM, 47.9 µM and 35.2 µM, respectively. Moreover, the inhibition entry in the experiment listed under Homo sapiens was “Dose-dependent effect”.

For `C=C1CC[C@@H](C(C)C)/C=C/[C@@](C)(O[C@@H]2O[C@H](CO)[C@@H](O)[C@H](O)[C@H]2OC(=O)/C=C/c2ccccc2)CCC1=O`, the IC50 in experiment [1] came to 49 µM; in experiment [3], 154 µM. For the same compound, in the experiment listed under Homo sapiens, the inhibition result was “Dose-dependent effect”.
